Measurements taken from PubChem BioAssay AID2060505 (Molecular Pharmacology Branch, DTP, NCI, 2025).

Test system: 633275-114-R-J1-PDC complex spheroids, viability
Assay: Anticancer human tumor 633275-114-R-J1-PDC patient-derived endometrial adenocarcinoma cell line growth inhibition [GQUAD]
Conditions: for IC50: curve of first compound; for viability, T/C: stronger effect = lower value
Procedure, shortened: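 Tumor cells were grown as complex spheroids with HUVEC endothelial cells and mesenchymal stem cells as stroma. G-quadruplex stabilizers were combined with targeted agents over half-log dilutions from near the clinical Cmax, or from 10 microM.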

[1] = second compound 0.0316 µM, first compound 0.0316 µM
[2] = second compound 0.0316 µM, first compound 0.1 µM
[3] = second compound 0.0316 µM, first compound 0.316 µM
[4] = second compound 0.0316 µM, first compound 1 µM
[5] = second compound 0.0316 µM, first compound 3.16 µM
[6] = second compound 0.0316 µM, first compound 10 µM
[7] = second compound 0.1 µM, first compound 0.0316 µM
[8] = second compound 0.1 µM, first compound 0.1 µM
[9] = second compound 0.1 µM, first compound 0.316 µM
[10] = second compound 0.1 µM, first compound 1 µM
[11] = second compound 0.1 µM, first compound 3.16 µM
[12] = second compound 0.1 µM, first compound 10 µM
[13] = second compound 0.316 µM, first compound 0.0316 µM
[14] = second compound 0.316 µM, first compound 0.1 µM
[15] = second compound 0.316 µM, first compound 0.316 µM
[16] = second compound 0.316 µM, first compound 1 µM
[17] = second compound 0.316 µM, first compound 3.16 µM
[18] = second compound 0.316 µM, first compound 10 µM
[19] = second compound 1 µM, first compound 0.0316 µM
[20] = second compound 1 µM, first compound 0.1 µM
[21] = second compound 1 µM, first compound 0.316 µM
[22] = second compound 1 µM, first compound 1 µM
[23] = second compound 1 µM, first compound 3.16 µM
[24] = second compound 1 µM, first compound 10 µM
[25] = second compound 3.16 µM, first compound 0.0316 µM
[26] = second compound 3.16 µM, first compound 0.1 µM
[27] = second compound 3.16 µM, first compound 0.316 µM
[28] = second compound 3.16 µM, first compound 1 µM
[29] = second compound 3.16 µM, first compound 3.16 µM
[30] = second compound 3.16 µM, first compound 10 µM
[31] = second compound 10 µM, first compound 0.0316 µM
[32] = second compound 10 µM, first compound 0.1 µM
[33] = second compound 10 µM, first compound 0.316 µM
[34] = second compound 10 µM, first compound 1 µM
[35] = second compound 10 µM, first compound 3.16 µM
[36] = second compound 10 µM, first compound 10 µM
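Further: spheroids exposed to the agents for seven days.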
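Wherever viability, T/C is given: percent of DMSO vehicle control viability which is 100%.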

CCCS(=O)(=O)Nc1ccc(F)c(C(=O)c2c[nH]c3ncc(-c4ccc(Cl)cc4)cc23)c1F + Cc1[nH]c2ccc(F)cc2c1-c1nc2c3cccnc3c3ncccc3c2[nH]1
IC50 (second compound 0.0316 µM): 9540 nM
IC50 (second compound 0.1 µM): 9210 nM
IC50 (second compound 0.316 µM): 8580 nM
IC50 (second compound 1 µM): 8240 nM
IC50 (second compound 3.16 µM): 7090 nM
IC50 (second compound 10 µM): > 10000 nM
viability, T/C [1]: 103%
viability, T/C [2]: 94.6%
viability, T/C [3]: 107%
viability, T/C [4]: 100%
viability, T/C [5]: 86.8%
viability, T/C [6]: 48.1%
viability, T/C [7]: 100%
viability, T/C [8]: 108%
viability, T/C [9]: 102%
viability, T/C [10]: 102%
viability, T/C [11]: 91.6%
viability, T/C [12]: 46.7%
viability, T/C [13]: 91.2%
viability, T/C [14]: 98.9%
viability, T/C [15]: 103%
viability, T/C [16]: 104%
viability, T/C [17]: 94.7%
viability, T/C [18]: 43.1%
viability, T/C [19]: 86.4%
viability, T/C [20]: 88.8%
viability, T/C [21]: 92.5%
viability, T/C [22]: 90.2%
viability, T/C [23]: 90.1%
viability, T/C [24]: 42%
viability, T/C [25]: 70.7%
viability, T/C [26]: 71.2%
viability, T/C [27]: 66.9%
viability, T/C [28]: 76.2%
viability, T/C [29]: 71.2%
viability, T/C [30]: 41%
viability, T/C [31]: 60.4%
viability, T/C [32]: 64.3%
viability, T/C [33]: 65.2%
viability, T/C [34]: 74.4%
viability, T/C [35]: 63.3%
viability, T/C [36]: 41.1%

Cc1[nH]c2ccccc2c1CCNCc1ccc(/C=C/C(=O)NO)cc1 + Cc1[nH]c2ccc(F)cc2c1-c1nc2c3cccnc3c3ncccc3c2[nH]1
IC50 (second compound 0.0316 µM): 63 nM
IC50 (second compound 0.1 µM): 83.5 nM
IC50 (second compound 0.316 µM): 65.7 nM
IC50 (second compound 1 µM): 54.6 nM
IC50 (second compound 3.16 µM): 21 nM
IC50 (second compound 10 µM): 16.2 nM
viability, T/C (second compound 0.0316 µM, first compound 0.000999 µM): 103%
viability, T/C (second compound 0.0316 µM, first compound 0.00316 µM): 85.6%
viability, T/C (second compound 0.0316 µM, first compound 0.00999 µM): 79.1%
viability, T/C [1]: 64.2%
viability, T/C (second compound 0.0316 µM, first compound 0.0999 µM): 41.4%
viability, T/C [3]: 19.3%
viability, T/C (second compound 0.1 µM, first compound 0.000999 µM): 90.6%
viability, T/C (second compound 0.1 µM, first compound 0.00316 µM): 90.4%
viability, T/C (second compound 0.1 µM, first compound 0.00999 µM): 81.6%
viability, T/C [7]: 70.5%
viability, T/C (second compound 0.1 µM, first compound 0.0999 µM): 46.1%
viability, T/C [9]: 17.3%
viability, T/C (second compound 0.316 µM, first compound 0.000999 µM): 94%
viability, T/C (second compound 0.316 µM, first compound 0.00316 µM): 94%
viability, T/C (second compound 0.316 µM, first compound 0.00999 µM): 71.2%
viability, T/C [13]: 62.3%
viability, T/C (second compound 0.316 µM, first compound 0.0999 µM): 44.8%
viability, T/C [15]: 19.7%
viability, T/C (second compound 1 µM, first compound 0.000999 µM): 87.6%
viability, T/C (second compound 1 µM, first compound 0.00316 µM): 78.7%
viability, T/C (second compound 1 µM, first compound 0.00999 µM): 71.7%
viability, T/C [19]: 57.2%
viability, T/C (second compound 1 µM, first compound 0.0999 µM): 41.9%
viability, T/C [21]: 21.2%
viability, T/C (second compound 3.16 µM, first compound 0.000999 µM): 69.8%
viability, T/C (second compound 3.16 µM, first compound 0.00316 µM): 64.9%
viability, T/C (second compound 3.16 µM, first compound 0.00999 µM): 53.6%
viability, T/C [25]: 45.1%
viability, T/C (second compound 3.16 µM, first compound 0.0999 µM): 41.3%
viability, T/C [27]: 21.7%
viability, T/C (second compound 10 µM, first compound 0.000999 µM): 62%
viability, T/C (second compound 10 µM, first compound 0.00316 µM): 65.4%
viability, T/C (second compound 10 µM, first compound 0.00999 µM): 48.7%
viability, T/C [31]: 45.5%
viability, T/C (second compound 10 µM, first compound 0.0999 µM): 36.4%
viability, T/C [33]: 20.8%

O=C(NO)c1cnc(N2CCN(S(=O)(=O)c3ccc4ccccc4c3)CC2)nc1 + Cc1[nH]c2ccc(F)cc2c1-c1nc2c3cccnc3c3ncccc3c2[nH]1
IC50 (second compound 0.0316 µM): 371 nM
IC50 (second compound 0.1 µM): 527 nM
IC50 (second compound 0.316 µM): 574 nM
IC50 (second compound 1 µM): 492 nM
IC50 (second compound 3.16 µM): 336 nM
IC50 (second compound 10 µM): 362 nM
viability, T/C [1]: 88.1%
viability, T/C [2]: 77.9%
viability, T/C [3]: 51.7%
viability, T/C [4]: 29%
viability, T/C [5]: 16.9%
viability, T/C [6]: 5.26%
viability, T/C [7]: 91.7%
viability, T/C [8]: 83.9%
viability, T/C [9]: 63.5%
viability, T/C [10]: 32.1%
viability, T/C [11]: 16%
viability, T/C [12]: 3.49%
viability, T/C [13]: 82.3%
viability, T/C [14]: 86.2%
viability, T/C [15]: 62.4%
viability, T/C [16]: 34.7%
viability, T/C [17]: 18.5%
viability, T/C [18]: 1.56%
viability, T/C [19]: 91.3%
viability, T/C [20]: 77.2%
viability, T/C [21]: 57.9%
viability, T/C [22]: 37%
viability, T/C [23]: 17.2%
viability, T/C [24]: 1.48%
viability, T/C [25]: 72.3%
viability, T/C [26]: 60.2%
viability, T/C [27]: 52.6%
viability, T/C [28]: 35.2%
viability, T/C [29]: 15.8%
viability, T/C [30]: 2.67%
viability, T/C [31]: 62.1%
viability, T/C [32]: 58.3%
viability, T/C [33]: 54.8%
viability, T/C [34]: 32.5%
viability, T/C [35]: 17.8%
viability, T/C [36]: 3.92%
